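Cells were grown in 96-well plates and exposed to each compound for 48 hours at five concentrations; endpoints were interpolated linearly between bracketing concentrations, or set to the highest concentration if not reached. GI50 marks 50% less growth.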 Active and inactive are the calls of the source. Cut-off read from the data, not from the text of the source: active = GI50 up to about 1.1 µM and inactive = higher. Where a SMILES comes first, the peptide text is derived from it. The star is where a group is joined. Boc = CC(C)(C)OC(=O)*
Tests used:
Assay in all cases: growth of human tumour cells (NCI), 48 h
786-0 = test system: 786-0
A498 = test system: A498
A549 = test system: A549
ACHN = test system: ACHN
CAKI-1 = test system: CAKI-1
COLO 205 = test system: COLO 205
DLD-1 = test system: DLD-1
DMS-273 = test system: DMS-273
EKVX = test system: EKVX
HCC 2998 = test system: HCC 2998
HCT-116 = test system: HCT-116
HCT-15 = test system: HCT-15
HL-60 = test system: HL-60
HOP-18 = test system: HOP-18
HOP-62 = test system: HOP-62
HOP-92 = test system: HOP-92
HT-29 = test system: HT-29
IGROV-1 = test system: IGROV-1
K562 = test system: K562
KM-20L2 = test system: KM-20L2
KM12 = test system: KM12
LOX IMVI = test system: LOX IMVI
LXFL 529 = test system: LXFL 529
M14 = test system: M14
M19-MEL = test system: M19-MEL
MOLT-4 = test system: MOLT-4
Malme-3M = test system: Malme-3M
NCI-H226 = test system: NCI-H226
NCI-H23 = test system: NCI-H23
NCI-H460 = test system: NCI-H460
NCI-H522 = test system: NCI-H522
OVCAR-3 = test system: OVCAR-3
OVCAR-4 = test system: OVCAR-4
OVCAR-5 = test system: OVCAR-5
OVCAR-8 = test system: OVCAR-8
RPMI-8226 = test system: RPMI-8226
RXF 393 = test system: RXF 393
RXF 631 = test system: RXF 631
SF-268 = test system: SF-268
SF-295 = test system: SF-295
SF-539 = test system: SF-539
SK-MEL-28 = test system: SK-MEL-28
SK-MEL-5 = test system: SK-MEL-5
SK-OV-3 = test system: SK-OV-3
SN12C = test system: SN12C
SNB-19 = test system: SNB-19
SNB-75 = test system: SNB-75
SR = test system: SR
SW-620 = test system: SW-620
TK-10 = test system: TK-10
U-251 = test system: U-251
UACC-257 = test system: UACC-257
UACC-62 = test system: UACC-62
UO-31 = test system: UO-31
XF498 = test system: XF498
CCRF-CEM = test system: CCRF-CEM
DMS-114 = test system: DMS-114
SK-MEL-2 = test system: SK-MEL-2
SNB-78 = test system: SNB-78

Measured: GI50

CN1CCC(SC2Cc3cc(Cl)ccc3Sc3ccccc32)CC1 (stereo not given)
15.7 µM: HCT-15
inactive: 786-0 13 µM | A498 16.1 µM | A549 15.3 µM | ACHN 14.6 µM | CAKI-1 10.7 µM | COLO 205 12.9 µM | DLD-1 14 µM | DMS-273 12.5 µM | EKVX 18.5 µM | HCC 2998 8.93 µM | HCT-116 10.4 µM | HL-60 4.15 µM | HOP-18 13.5 µM | HOP-62 > 10 µM | HOP-92 11.7 µM | HT-29 4.24 µM | IGROV-1 14.7 µM | K562 5.04 µM | KM-20L2 5.27 µM | KM12 10.3 µM | LOX IMVI 11.5 µM | LXFL 529 13.1 µM | M14 4 µM | M19-MEL 12.7 µM | MOLT-4 4.24 µM | Malme-3M 14.2 µM | NCI-H226 15.1 µM | NCI-H23 14.1 µM | NCI-H460 12.2 µM | NCI-H522 13.9 µM | OVCAR-3 13.6 µM | OVCAR-4 14.7 µM | OVCAR-5 16.7 µM | OVCAR-8 17.3 µM | RPMI-8226 7.29 µM | RXF 393 3.66 µM | RXF 631 13.3 µM | SF-268 11.8 µM | SF-295 15.9 µM | SF-539 16.4 µM | SK-MEL-28 2.12 µM | SK-MEL-5 13.5 µM | SK-OV-3 15.8 µM | SN12C 14.6 µM | SNB-19 15.6 µM | SNB-75 8.79 µM | SR 8.18 µM | SW-620 13.6 µM | TK-10 13 µM | U-251 13.6 µM | UACC-257 7.96 µM | UACC-62 3.33 µM | UO-31 3.86 µM | XF498 16 µM

CN(C)CC1CCC/C1=N/OC(=O)c1ccccc1 (stereo not given)
inactive: 786-0 > 100 µM | A498 > 100 µM | ACHN > 100 µM | CAKI-1 > 100 µM | CCRF-CEM > 100 µM | COLO 205 > 100 µM | DLD-1 > 100 µM | DMS-114 > 100 µM | DMS-273 > 100 µM | HCC 2998 > 100 µM | HCT-116 > 100 µM | HOP-18 > 100 µM | HOP-62 > 100 µM | HOP-92 > 100 µM | HT-29 > 100 µM | IGROV-1 > 100 µM | K562 > 100 µM | KM-20L2 > 100 µM | LOX IMVI > 100 µM | LXFL 529 > 100 µM | M14 > 100 µM | M19-MEL > 100 µM | MOLT-4 > 100 µM | NCI-H226 > 100 µM | NCI-H23 > 100 µM | NCI-H460 > 100 µM | NCI-H522 > 100 µM | OVCAR-3 > 100 µM | OVCAR-4 > 100 µM | OVCAR-5 > 100 µM | OVCAR-8 > 100 µM | RPMI-8226 > 100 µM | RXF 393 > 100 µM | RXF 631 > 100 µM | SF-268 > 100 µM | SF-295 > 100 µM | SF-539 > 100 µM | SK-MEL-28 > 100 µM | SK-MEL-2 > 100 µM | SK-MEL-5 > 100 µM | SK-OV-3 > 100 µM | SN12C > 100 µM | SNB-75 > 100 µM | SNB-78 > 100 µM | SR > 100 µM | SW-620 > 100 µM | TK-10 > 100 µM | U-251 > 100 µM | UACC-257 > 100 µM | UACC-62 > 100 µM | UO-31 > 100 µM
> 100 µM: HCT-15

NC(=O)c1ncn(CCN2CCN(C(=O)NCCCCCCNC(=O)N3CCN(CCn4cnc(C(N)=O)c4N)CC3)CC2)c1N
> 100 µM: HCT-15
inactive: 786-0 > 100 µM | A549 > 100 µM | ACHN > 100 µM | CAKI-1 > 100 µM | CCRF-CEM > 100 µM | COLO 205 > 100 µM | DLD-1 > 100 µM | DMS-273 > 100 µM | EKVX > 100 µM | HCC 2998 > 100 µM | HCT-116 > 100 µM | HL-60 > 100 µM | HOP-18 > 100 µM | HOP-62 > 100 µM | HOP-92 > 100 µM | HT-29 > 100 µM | IGROV-1 > 100 µM | K562 > 100 µM | KM-20L2 > 100 µM | KM12 > 100 µM | LOX IMVI > 100 µM | LXFL 529 > 100 µM | M14 > 100 µM | MOLT-4 > 100 µM | Malme-3M > 100 µM | NCI-H226 > 100 µM | NCI-H23 > 100 µM | NCI-H460 > 100 µM | OVCAR-3 > 100 µM | OVCAR-4 > 100 µM | OVCAR-5 > 100 µM | OVCAR-8 > 100 µM | RPMI-8226 > 100 µM | RXF 393 > 100 µM | RXF 631 > 100 µM | SF-268 > 100 µM | SF-295 > 100 µM | SF-539 > 100 µM | SK-MEL-28 > 100 µM | SK-MEL-2 > 100 µM | SK-MEL-5 > 100 µM | SK-OV-3 > 100 µM | SN12C > 100 µM | SNB-19 > 100 µM | SNB-75 > 100 µM | SNB-78 > 100 µM | SR > 100 µM | SW-620 > 100 µM | TK-10 > 100 µM | U-251 > 100 µM | UACC-257 > 100 µM | UACC-62 > 100 µM | UO-31 > 100 µM | XF498 > 100 µM

O=C(Nc1ccccc1-c1nn(CN2CCNCC2)c(=S)n(CN2CCNCC2)c1=O)C(F)(F)F
15.9 µM: HCT-15
inactive: 786-0 18.7 µM | A498 18.2 µM | A549 22.3 µM | ACHN 25.3 µM | CAKI-1 23.9 µM | CCRF-CEM 17.1 µM | COLO 205 17.1 µM | DLD-1 16.5 µM | DMS-114 19.1 µM | DMS-273 18.1 µM | EKVX 14.2 µM | HCC 2998 19.1 µM | HCT-116 17.8 µM | HL-60 16.4 µM | HOP-18 18.2 µM | HOP-62 19.6 µM | HOP-92 22 µM | HT-29 23.4 µM | IGROV-1 22.3 µM | K562 21.9 µM | KM12 19.7 µM | LOX IMVI 18.8 µM | M14 16.9 µM | M19-MEL 17.9 µM | MOLT-4 23 µM | Malme-3M 17.9 µM | NCI-H226 17.2 µM | NCI-H23 17.9 µM | NCI-H460 20.5 µM | OVCAR-3 20.7 µM | OVCAR-4 19.5 µM | OVCAR-5 22.9 µM | OVCAR-8 20.6 µM | RXF 393 16.3 µM | RXF 631 20.7 µM | SF-268 21.4 µM | SF-295 29 µM | SF-539 18.4 µM | SK-MEL-28 18.9 µM | SK-MEL-2 19.4 µM | SK-MEL-5 17.3 µM | SK-OV-3 20 µM | SN12C 19.4 µM | SNB-19 21.6 µM | SNB-75 22.6 µM | SNB-78 23 µM | SW-620 10.1 µM | TK-10 27.5 µM | U-251 16.9 µM | UACC-257 17.2 µM | UACC-62 18.3 µM | UO-31 13.6 µM

CSCCC(NC(=O)C(CC(C)C)NC(=O)C1CCCN1C(=O)C(Cc1ccccc1)NC(=O)C(Cc1ccccc1)NC(=O)C(CCC(=O)O)NC(=O)OC(C)(C)C)C(N)=O (stereo not given) (Boc-EFFPLM-NH2; configuration not given here)
inactive: 786-0 > 100 µM | A498 > 100 µM | CAKI-1 > 100 µM | CCRF-CEM > 100 µM | COLO 205 > 100 µM | DLD-1 > 100 µM | DMS-114 > 100 µM | DMS-273 > 100 µM | HCC 2998 > 100 µM | HCT-116 > 100 µM | HL-60 > 100 µM | HOP-62 > 100 µM | HOP-92 > 100 µM | IGROV-1 > 100 µM | K562 > 100 µM | LOX IMVI > 100 µM | LXFL 529 > 100 µM | M14 > 100 µM | M19-MEL > 100 µM | MOLT-4 > 100 µM | Malme-3M > 100 µM | NCI-H226 > 100 µM | NCI-H23 > 100 µM | NCI-H460 > 100 µM | NCI-H522 > 100 µM | OVCAR-4 > 100 µM | RPMI-8226 > 100 µM | RXF 631 > 100 µM | SF-268 > 100 µM | SF-539 > 100 µM | SK-MEL-28 > 100 µM | SK-MEL-2 > 100 µM | SK-OV-3 > 100 µM | SN12C > 100 µM | SNB-75 > 100 µM | SNB-78 > 100 µM | SR > 100 µM | UACC-62 > 100 µM | UO-31 > 100 µM | XF498 > 100 µM

Reference: ChEMBL document CHEMBL1201862, “PubChem BioAssay data set” (2004)
